{"source": "patent US20230399666A1", "about": "“METHODS AND COMPOSITIONS FOR THE PRODUCTION OF RHAMNOLIPID” (THE REGENTS OF THE UNIVERSITY OF CALIFORNIA, priority 2022, published 2023)", "key": {"M. alcahphilum": {"system": "M. alcahphilum", "experiment": "Antimicrobial activity of Ptet inducer anhydrotetracycline, evaluated on methanol", "assay_type": "cell-based, Methylotuvimicrobium alcaliphilum", "protocol": "Luria-Bertani (LB) broth and agar plates are routinely used to culture E. coli cells at 37° C. For routine cultivation of M. alcahphilum strain WT (wild type) and its derivatives, Pi (π) media with 3% (w/v) NaCl is used as described in Collins and Kaluzhnaya.^56 When needed, kanamycin (Kan) is added to the growth medium at 100 μg/mL for ts. alcahphilum and 50 μg/mL for E. coli cultures. Ampicillin is added to the growth medium at 100 μg/mL. M alcahphilum cell cultures are grown as batch cultures, either 4 mL culture in 20 mL anaerobic glass tubes or 10 mL culture in 50 mL serum vials, under a methane (99.9%; Airgas): air atmosphere (1:1). Cell cultures are incubated at 30° shaking at 220 rpm. Cell growth is measured as optical density (OD 600 nm) using Spectronic 200E spectroscope at time points mentioned in results and discussion. Single colony isolates and transformant selections are performed on Pi media agar plates incubated in anaerobic jars (Oxoid; Remel) under a methane-air atmosphere (1:1). For M. alcahphilum (pDA17) induction, antimicrobial activity of Ptet inducer, anhydrotetracycline (aTC) is first evaluated (FIG. 7) on methanol, it is observed that aTC antimicrobial effect on M. alcahphilum is apparent at concentration >2.5 μg/mL. Thus, based on the observation and previous report 33 , concentration of 1 μg/mL aTC is used for optimal gene expression. […]"}, "[1]": {"system": "M. alcaliphilum strain DSM19304 (WT)", "experiment": "Inhibitory effect of rhamnolipids on growth (OD600) of M. alcaliphilum wild type on CH4", "assay_type": "cell-based, Methylotuvimicrobium alcaliphilum", "from_the_text": "M. alcaliphilum converts methane by sequential oxidation to formaldehyde, which enters the central carbon metabolism through the RUMP pathway^39. M. alcaliphilum produces high amounts of glycogen, sucrose and ectoine with smaller amounts of lactate, formate, succinate and no known reports of RLs^38,40,41. Rhamnolipids are used as biocontrol/anti-microbial agents, and increasing rhamnolipid concentrations are found to negatively impact growth of Gram-negative and Gram-positive heterologous hosts, E. coli, Bacillus subtilis and Corynebacterium glutamicum^23. Therefore, M. alcaliphilum growth is tested in the presence of RLs. […] The RL toxicity to M. alcaliphilum is much higher than reported concentrations in other Gram-negative host like E. coli (>90 g/L). The toxicity of RLs to M. alcaliphilum required adaptive evolution to permit the strain to produce rhamnolipids.\nLuria-Bertani (LB) broth and agar plates are routinely used to culture E. coli cells at 37° C. For routine cultivation of M. alcahphilum strain WT (wild type) and its derivatives, Pi (π) media with 3% (w/v) NaCl is used as described in Collins and Kaluzhnaya.^56 When needed, kanamycin (Kan) is added to the growth medium at 100 μg/mL for ts. alcahphilum and 50 μg/mL for E. coli cultures. Ampicillin is added to the growth medium at 100 μg/mL. M alcahphilum cell cultures are grown as batch cultures, either 4 mL culture in 20 mL anaerobic glass tubes or 10 mL culture in 50 mL serum vials, under a methane (99.9%; Airgas): air atmosphere (1:1). Cell cultures are incubated at 30° shaking at 220 rpm. Cell growth is measured as optical density (OD 600 nm) using Spectronic 200E spectroscope at time points mentioned in results and discussion. Single colony isolates and transformant selections are performed on Pi media agar plates incubated in anaerobic jars (Oxoid; Remel) under a methane-air atmosphere (1:1). For M. alcahphilum (pDA17) induction, antimicrobial activity of Ptet inducer, anhydrotetracycline (aTC) is first evaluated (FIG. 7) on methanol, it is observed that aTC antimicrobial effect on M. alcahphilum is apparent at concentration >2.5 μg/mL. Thus, based on the observation and previous report 33 , concentration of 1 μg/mL aTC is used for optimal gene expression. M. alcahphilum (pDA17) cultures are induced with anhydrotetracycline (1 μg/mL) at time of inoculation^33."}, "E. coli": {"system": "E. coli", "conditions": "literature; cited from earlier work"}, "[2]": {"system": "M. alcaliphilum strain DASS", "experiment": "Rhamnolipid tolerance of the adapted strain after adaptive laboratory evolution", "assay_type": "cell-based, Methylotuvimicrobium alcaliphilum", "protocol": "A course of adaptive laboratory evolution to allow M. alcaliphilum to grow on CH4 in the RLs is followed for four months. During this adaptation, M. alcaliphilum strain DSM19304 (hereafter referred as WT, wild type) is subjected to gradually increasing RL concentration starting from 0.5 g/L to 5 g/L (FIG. 2B). At the end of multiple transfers over a period of four months, an M. alcaliphilum strain tolerant to RLs (strain DASS) is obtained.\nM. alcahphilum strain DSM19304 is grown in batch cultures of 10 mL Pi media in 50 mL serum vials under a methane-air atmosphere at 30° C. with agitation at 200 rpm. To adapt the cells to grow in the presence of RLs, 0.5 g/L RL (90% mono-RL, Millipore Sigma) is supplemented to the starting cell culture. The concentration of RLs is increased gradually and stepwise (1, 1.5, 2, 3, 4 and 5 g/L) to achieve a final strain of M. alcahphilum tolerant to 5 g/L RL. A 0.1% inoculum is manually transferred from a growing batch culture to a fresh culture in 48-60h. The RL concentration in the media is increased to next higher concentration when the OD 600 nm at 48 h of the growing batch culture with RL reached similar OD600 to WT (>1.0) at the end of 48 h. After the adaptation, single colonies of M. alcahphilum strain DASS are isolated on Pi media agar plates. Multiple single colony isolates are confirmed to be M. alcahphilum via 16S rRNA sequencing to rule out possibility of co-contaminants. No differences are observed in growth of multiple single colonies that are tested, one clone is selected for further analysis and plasmid transformation."}}, "data": [{"compound": "Cc1c2c(c(O)c3c(O)cccc13)C(=O)[C@]1(O)C(=O)C(C(N)=O)=C(O)[C@@H](N(C)C)[C@@H]1C2", "note": "[aTC, anhydrotetracycline]", "values": [{"measurement": "concentration at which antimicrobial effect is apparent", "setting": "M. alcahphilum", "result": "> 2.5", "unit": "µg/mL"}]}, {"compound": "rhamnolipids", "values": [{"measurement": "growth inhibition", "setting": "[1]; 1 g/L RL amendment, 36 hours of culture", "result": "almost complete inhibition"}, {"measurement": "concentration inhibitory to growth", "setting": "[1]; M. alcaliphilum DSM19304", "result": "< 0.05", "unit": "g/L"}, {"measurement": "reduction in final optical density", "setting": "[1]; medium amended with 0.1 g/L RL, 36 hours of culture", "result": 50, "unit": "%"}, {"measurement": "MIC", "setting": "[1]; parent strain DSM19304", "result": 500, "unit": "µg/mL"}, {"measurement": "concentration of rhamnolipids that cannot be tolerated", "setting": "[1]; strain DSM19304, surfactant effects", "result": 0.5, "unit": "g/L"}, {"measurement": "reported toxic concentration", "setting": "E. coli", "result": "> 90", "unit": "g/L"}, {"measurement": "fold higher concentration in which the adapted strain grows compared to parent strain", "setting": "[2]; DASS vs parent strain", "result": 10, "unit": "fold"}, {"measurement": "tolerated rhamnolipid concentration", "setting": "[2]; evolved strain DASS, grown on CH4, listed as RL", "result": 5, "unit": "g/L"}, {"measurement": "growth with RL in the absence of CH4 (RL as carbon source)", "setting": "[2]; strain DASS, 5 g/L RL, no CH4", "result": "did not promote growth"}]}]}
